# Experimental data reported in the supplement of paper PMC10307832.
# Legend:
# Assay in all cases: relative viability (nuclei count vs DMSO), 5 days (fraction); higher = more cells survive
# PC-3 [JPC-3] = test system: PC-3 [JPC-3]
# Summary of the method: (§1)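 The day after seeding in 1536-well plates, lung cancer cell lines were treated by pin tool with a single drug, or with a fixed anchor-drug dose together with five library-drug doses (not always all listed) in √10 steps. After 5 days, a combined fix-and-stain solution (final 0.05% Triton X-100, 1% formaldehyde, 1 ug/ml Hoechst) was added. Nuclei counted on 4× images gave relative viability as treated counts over vehicle counts, reported as the median of duplicate plates.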
# NCI-H1993 = test system: NCI-H1993
# Summary of the method: as §1
# NCI-H1793 = test system: NCI-H1793
# Summary of the method: as §1
# COR-L23 = test system: COR-L23
# Summary of the method: as §1
# NCI-H2170 = test system: NCI-H2170
# Summary of the method: as §1
# NCI-H2228 = test system: NCI-H2228
# Summary of the method: as §1
# NCI-H1792 = test system: NCI-H1792
# Summary of the method: as §1
# SW 1573 = test system: SW 1573
# Summary of the method: as §1
# NCI-H2009 = test system: NCI-H2009
# Summary of the method: as §1
# NCI-H596 = test system: NCI-H596
# Summary of the method: as §1
# HARA = test system: HARA
# Summary of the method: as §1
# SW 900 = test system: SW 900
# Summary of the method: as §1
# EMC-BAC-2 = test system: EMC-BAC-2
# Summary of the method: as §1
# HOP-62 = test system: HOP-62
# Summary of the method: as §1
# SK-MES-1 = test system: SK-MES-1
# Summary of the method: as §1
# SK-LU-1 = test system: SK-LU-1
# Summary of the method: as §1
# LK-2 = test system: LK-2
# Summary of the method: as §1
# NCI-H1944 = test system: NCI-H1944
# Summary of the method: as §1
# NCI-H3122 = test system: NCI-H3122
# Summary of the method: as §1
# LXF-289 = test system: LXF-289
# Summary of the method: as §1
# A-427 = test system: A-427
# Summary of the method: as §1
compound,measurement,setting,value
NC(=O)Nc1cc(-c2cccc(F)c2)sc1C(=O)N[C@H]1CCCNC1 [AZD7762] + Nc1nc2[nH]cc(CCc3ccc(C(=O)N[C@@H](CCC(=O)O)C(=O)O)cc3)c2c(=O)[nH]1 [Pemetrexed] (partner 0.2 µM),relative viability,PC-3 [JPC-3]; first compound 0.01 µM,0.626
same,relative viability,PC-3 [JPC-3]; first compound 0.03162 µM,1.08
same,relative viability,PC-3 [JPC-3]; first compound 0.1 µM,1.12
same,relative viability,PC-3 [JPC-3]; first compound 0.3162 µM,0.859
same,relative viability,PC-3 [JPC-3]; first compound 1 µM,0.688
same,relative viability,NCI-H1993; first compound 0.01 µM,0.559
same,relative viability,NCI-H1993; first compound 0.03162 µM,0.487
same,relative viability,NCI-H1993; first compound 0.1 µM,0.602
same,relative viability,NCI-H1993; first compound 0.3162 µM,0.586
same,relative viability,NCI-H1993; first compound 1 µM,0.578
same,relative viability,NCI-H1793; first compound 0.01 µM,0.983
same,relative viability,NCI-H1793; first compound 0.03162 µM,0.956
same,relative viability,NCI-H1793; first compound 0.1 µM,0.954
same,relative viability,NCI-H1793; first compound 0.3162 µM,0.811
same,relative viability,NCI-H1793; first compound 1 µM,0.562
same,relative viability,COR-L23; first compound 0.01 µM,0.191
same,relative viability,COR-L23; first compound 0.03162 µM,0.185
same,relative viability,COR-L23; first compound 0.1 µM,0.181
same,relative viability,COR-L23; first compound 0.3162 µM,0.168
same,relative viability,COR-L23; first compound 1 µM,0.131
same,relative viability,NCI-H2170; first compound 0.01 µM,0.272
same,relative viability,NCI-H2170; first compound 0.03162 µM,0.264
same,relative viability,NCI-H2170; first compound 0.1 µM,0.285
same,relative viability,NCI-H2170; first compound 0.3162 µM,0.236
same,relative viability,NCI-H2170; first compound 1 µM,0.21
same,relative viability,NCI-H2228; first compound 0.01 µM,0.279
same,relative viability,NCI-H2228; first compound 0.03162 µM,0.328
same,relative viability,NCI-H2228; first compound 0.1 µM,0.293
same,relative viability,NCI-H2228; first compound 0.3162 µM,0.299
same,relative viability,NCI-H2228; first compound 1 µM,0.2
same,relative viability,NCI-H1792; first compound 0.01 µM,0.957
same,relative viability,NCI-H1792; first compound 0.03162 µM,0.822
same,relative viability,NCI-H1792; first compound 0.1 µM,0.844
same,relative viability,NCI-H1792; first compound 0.3162 µM,0.732
same,relative viability,NCI-H1792; first compound 1 µM,0.421
same,relative viability,SW 1573; first compound 0.01 µM,0.796
same,relative viability,SW 1573; first compound 0.03162 µM,0.778
same,relative viability,SW 1573; first compound 0.1 µM,0.717
same,relative viability,SW 1573; first compound 0.3162 µM,0.604
same,relative viability,SW 1573; first compound 1 µM,0.272
same,relative viability,NCI-H2009; first compound 0.01 µM,1
same,relative viability,NCI-H2009; first compound 0.03162 µM,1.02
same,relative viability,NCI-H2009; first compound 0.1 µM,1.03
same,relative viability,NCI-H2009; first compound 0.3162 µM,0.888
same,relative viability,NCI-H2009; first compound 1 µM,0.783
same,relative viability,NCI-H596; first compound 0.01 µM,0.484
same,relative viability,NCI-H596; first compound 0.03162 µM,0.573
same,relative viability,NCI-H596; first compound 0.1 µM,0.54
same,relative viability,NCI-H596; first compound 0.3162 µM,0.425
same,relative viability,NCI-H596; first compound 1 µM,0.393
same,relative viability,HARA; first compound 0.01 µM,0.23
same,relative viability,HARA; first compound 0.03162 µM,0.25
same,relative viability,HARA; first compound 0.1 µM,0.198
same,relative viability,HARA; first compound 0.3162 µM,0.16
same,relative viability,HARA; first compound 1 µM,0.164
same,relative viability,SW 900; first compound 0.01 µM,0.533
same,relative viability,SW 900; first compound 0.03162 µM,0.459
same,relative viability,SW 900; first compound 0.1 µM,0.452
same,relative viability,SW 900; first compound 0.3162 µM,0.475
same,relative viability,SW 900; first compound 1 µM,0.374
same,relative viability,EMC-BAC-2; first compound 0.01 µM,0.457
same,relative viability,EMC-BAC-2; first compound 0.03162 µM,0.397
same,relative viability,EMC-BAC-2; first compound 0.1 µM,0.405
same,relative viability,EMC-BAC-2; first compound 0.3162 µM,0.35
same,relative viability,EMC-BAC-2; first compound 1 µM,0.387
same,relative viability,HOP-62; first compound 0.01 µM,0.359
same,relative viability,HOP-62; first compound 0.03162 µM,0.318
same,relative viability,HOP-62; first compound 0.1 µM,0.264
same,relative viability,HOP-62; first compound 0.3162 µM,0.248
same,relative viability,HOP-62; first compound 1 µM,0.208
same,relative viability,SK-MES-1; first compound 0.01 µM,1.01
same,relative viability,SK-MES-1; first compound 0.03162 µM,0.914
same,relative viability,SK-MES-1; first compound 0.1 µM,0.86
same,relative viability,SK-MES-1; first compound 0.3162 µM,0.433
same,relative viability,SK-MES-1; first compound 1 µM,0.237
same,relative viability,SK-LU-1; first compound 0.01 µM,1.14
same,relative viability,SK-LU-1; first compound 0.03162 µM,0.776
same,relative viability,SK-LU-1; first compound 0.1 µM,0.698
same,relative viability,SK-LU-1; first compound 0.3162 µM,0.299
same,relative viability,SK-LU-1; first compound 1 µM,0.238
same,relative viability,LK-2; first compound 0.01 µM,0.316
same,relative viability,LK-2; first compound 0.03162 µM,0.358
same,relative viability,LK-2; first compound 0.1 µM,0.274
same,relative viability,LK-2; first compound 0.3162 µM,0.214
same,relative viability,LK-2; first compound 1 µM,0.169
same,relative viability,NCI-H1944; first compound 0.01 µM,0.694
same,relative viability,NCI-H1944; first compound 0.03162 µM,0.601
same,relative viability,NCI-H1944; first compound 0.1 µM,0.54
same,relative viability,NCI-H1944; first compound 0.3162 µM,0.28
same,relative viability,NCI-H1944; first compound 1 µM,0.188
same,relative viability,NCI-H3122; first compound 0.01 µM,0.19
same,relative viability,NCI-H3122; first compound 0.03162 µM,0.188
same,relative viability,NCI-H3122; first compound 0.1 µM,0.167
same,relative viability,NCI-H3122; first compound 0.3162 µM,0.16
same,relative viability,NCI-H3122; first compound 1 µM,0.139
same,relative viability,LXF-289; first compound 0.01 µM,0.817
same,relative viability,LXF-289; first compound 0.03162 µM,0.864
same,relative viability,LXF-289; first compound 0.1 µM,0.949
same,relative viability,LXF-289; first compound 0.3162 µM,0.803
same,relative viability,LXF-289; first compound 1 µM,0.626
same,relative viability,A-427; first compound 0.01 µM,0.949
same,relative viability,A-427; first compound 0.03162 µM,0.94
same,relative viability,A-427; first compound 0.1 µM,1.11
same,relative viability,A-427; first compound 0.3162 µM,0.916
same,relative viability,A-427; first compound 1 µM,0.374
